Columns and labels:
Canis familiaris [1] = test: Antiarrhythmic activity in ouabain-induced ventricular arrhythmia in dog at compound concentration of 10 mg/kg; assay type: functional, Canis lupus familiaris, Heart
Canis familiaris [2] = test: No. of cases tested was measured on ouabain induced ventricular arrhythmia at 5 mg/kg, iv in dogs; 0/2; assay type: functional, Canis lupus familiaris, Cardiac ventricle
Mus musculus [3] = species: Mus musculus; test: Inhibition of chloroform induced ventricular arrhythmia; assay type: functional, Cardiac ventricle
[4] = target: T1, Muscarinic acetylcholine receptor (Rattus norvegicus) (UniProt P08482+P08483+P08485+P08911+P10980); test: Inhibitory effect on muscarinic acetylcholine receptor binding affinity at a concentration of (10e -5)M; assay type: protein assay
[5] = target: T1, Muscarinic acetylcholine receptor (Rattus norvegicus); test: Inhibitory effect on muscarinic acetylcholine receptor binding affinity at a concentration of (10e -6)M; assay type: protein assay
Canis familiaris [6] = test: No. of cases tested was measured on ouabain induced ventricular arrhythmia at 5 mg/kg, iv in dogs; 0/4; assay type: functional, Canis lupus familiaris, Cardiac ventricle
Canis familiaris [7] = test: No. of cases tested was measured on ouabain induced ventricular arrhythmia at 5 mg/kg, iv in dogs; 1/7; assay type: functional, Canis lupus familiaris, Cardiac ventricle
[8] = Ratio of ED100 (Dose po required to double the prodrug pupil size in mice) to that of ED50 (50% inhibition of chloroform induced ventricular arrhythmia in mice); assay type: functional
Canis familiaris [9] = test: No. of cases tested was measured on ouabain induced ventricular arrhythmia at 5 mg/kg, iv in dogs; 0/3; assay type: functional, Canis lupus familiaris, Cardiac ventricle
Canis familiaris [10] = test: No. of cases tested was measured on ouabain induced ventricular arrhythmia at 5 mg/kg, iv in dogs; 0/1; assay type: functional, Canis lupus familiaris, Cardiac ventricle
Canis familiaris [11] = test: No. of cases tested was measured on ouabain induced ventricular arrhythmia at dose (10mg/Kg, iv); 0/2; assay type: functional, Canis lupus familiaris, Cardiac ventricle
Canis familiaris [12] = test: No. of cases tested was measured on ouabain induced ventricular arrhythmia at 5 mg/kg, iv in dogs; 3/3; assay type: functional, Canis lupus familiaris, Cardiac ventricle
Canis familiaris [13] = test: No. of cases tested was measured on ouabain induced ventricular arrhythmia at 5 mg/kg, iv in dogs; 3/6; assay type: functional, Canis lupus familiaris, Cardiac ventricle
Mus musculus [14] = test: Dose (po) required to double the prodrug pupil size; assay type: functional
Mus musculus [15] = species: Mus musculus; test: Compound was evaluated by measuring the 50% inhibition of chloroform induced ventricular arrhythmia in mice; assay type: functional; settings: Cardiac ventricle
Canis familiaris [16] = test: No. of cases tested was measured on ouabain induced ventricular arrhythmia at 5 mg/kg, iv in dogs; 6/6; assay type: functional, Canis lupus familiaris, Cardiac ventricle
Canis familiaris [17] = test: No. of cases tested was measured on ouabain induced ventricular arrhythmia at 5 mg/kg, iv in dogs; 2/2; assay type: functional, Canis lupus familiaris, Cardiac ventricle
Canis familiaris [18] = test: No. of cases tested was measured on ouabain induced ventricular arrhythmia at 5 mg/kg, iv in dogs; 1/4; assay type: functional, Canis lupus familiaris, Cardiac ventricle
Canis familiaris [19] = test: No. of cases tested was measured on ouabain induced ventricular arrhythmia at 5 mg/kg, iv in dogs; 1/3; assay type: functional, Canis lupus familiaris, Cardiac ventricle
Canis familiaris [20] = test: No. of cases tested was measured on ouabain induced ventricular arrhythmia at 5 mg/kg, iv in dogs; 2/3; assay type: functional, Canis lupus familiaris, Cardiac ventricle
Canis familiaris [21] = test: No. of cases tested was measured on ouabain induced ventricular arrhythmia at dose 10mg/Kg, iv; 0/3; assay type: functional, Canis lupus familiaris, Cardiac ventricle
[22] = Mus musculus, Cardiac ventricle, read-out: ED50

Structure (SMILES)	No. positive cases/tested (Canis familiaris [2])	ED50 (Mus musculus [3]; [22]) [mg/kg]	inhibition [4] [%]	inhibition [5] [%]	also measured
CCN(CC)CCNC1c2cc(OC)ccc2OCc2ncccc21 (racemic)					Inhibition (Canis familiaris [1]): 76%
CCN(CC)CC(=O)NC1c2cc(OC)ccc2OCc2ncccc21 (configuration not stated)	0	> 100	1	-3	
CCN(CC)CC/C=C1\c2cc(OC)ccc2OCc2ncccc21		> 100	27	3	No. positive cases/tested (Canis familiaris [6]): 0
CCN1CCCC1CNC1c2cc(OC)ccc2OCc2ncccc21 (stereo in doubt; 26) [listing 1 of 2 here]	0				ED50 (Mus musculus [3]): 61 mg/kg
CCN(CC)CCNC1c2cc(O)ccc2OCc2ncccc21 (configuration not stated)		> 100	-1	0	No. positive cases/tested (Canis familiaris [7]): 1
Cc1cccc(C)c1OCC(C)N (configuration not stated) [MEXILETINE]		71	-3	-1	Ratio [8]: 1.7
CCN(CC)CCSC1c2cc(OC)ccc2OCc2ncccc21 (configuration not stated)		31	20	1	No. positive cases/tested (Canis familiaris [9]): 0
CCN(CC)CCNC1c2cc(OC)ccc2OCc2ncccc21 (single isomer, unassigned; (-))					Inhibition (Canis familiaris [1]): 94%
COc1ccc2c(c1)C(N1CCN(C)CC1)c1cccnc1CO2 (configuration not stated)	0	81	11	0	
CCN(CC)CCNC1c2cc(OC)c(OC)cc2OCc2ncccc21 (configuration not stated)	0	> 100	2	7	
CCN(CC)CCNC1c2cccnc2COc2c(OC)cccc21 (configuration not stated)	0	> 100	37	12	
COc1ccc2c(c1)C(NCCN1[C@@H](C)CC[C@@H]1C)c1cccnc1CO2 (some centres not stated)		100	6	-2	No. positive cases/tested (Canis familiaris [10]): 0
CCN(CC)CCNC1c2cc(N(C)C)ccc2OCc2ncccc21 (configuration not stated)		> 100	19	4	No. positive cases/tested (Canis familiaris [11]): 0
COc1ccc2c(c1)C(NCCCNC1CCCCC1)c1cccnc1CO2 (configuration not stated)		> 100	-1	-1	No. positive cases/tested (Canis familiaris [12]): 3
COc1ccc2c(c1)C(NCCN)c1cccnc1CO2 (configuration not stated)	0	> 100	5	-1	
CCN(CC)CCNC1c2cc(OC)ccc2OCc2ncccc21 (configuration not stated) [listing 1 of 2 here]					No. positive cases/tested (Canis familiaris [13]): 3; ED100 (Mus musculus [14]): 194 mg/kg; ED50 (Mus musculus [15]): 62 mg/kg; Ratio [8]: 4
COc1ccc2c(c1)C(NCCCN(C)C)c1cccnc1CO2 (configuration not stated)	0	> 100	5	1	
CC(C)N(CCC(C(N)=O)(c1ccccc1)c1ccccn1)C(C)C (configuration not stated) [DISOPYRAMIDE]		35	7	-1	No. positive cases/tested (Canis familiaris [16]): 6; ED100 (Mus musculus [14]): 20 mg/kg; Ratio [8]: 0.6
CCN(CC)CC/C=C1/c2ccccc2OCc2ncccc21		> 17	80	28	No. positive cases/tested (Canis familiaris [17]): 2
COc1ccc2c(c1)C(NCCN1CCOCC1)c1cccnc1CO2 (configuration not stated)	0	> 100	0	0	
CCN(CC)CCNC1c2cc(OC)ccc2OCc2ncccc21 (single isomer, unassigned; (+))					Inhibition (Canis familiaris [1]): 51%

Structure (SMILES)	No. positive cases/tested (Canis familiaris [2])	ED50 (Mus musculus [3]; [22]) [mg/kg]	inhibition [4] [%]	inhibition [5] [%]	also measured
COc1ccc2c(c1)C(NCCN(C(C)C)C(C)C)c1cccnc1CO2 (configuration not stated)	0	> 100	17	4	
CCN(CC)CCNC1c2cc(C)ccc2OCc2ncccc21 (configuration not stated)		> 100			
CCN(CC)CC/C=C1/c2cc(OC)ccc2OCc2ncccc21		14	26	5	No. positive cases/tested (Canis familiaris [18]): 1
COc1ccc2c(c1)C(NCCN1CCCC1)c1cccnc1CO2 (configuration not stated)		> 100	12	3	No. positive cases/tested (Canis familiaris [9]): 0
COc1ccc2c(c1)C(NN1CCN(C)CC1)c1cccnc1CO2 (configuration not stated)	0	> 100	7	2	
COc1ccc2c(c1)C(NCCN1[C@H](C)CC[C@@H]1C)c1cccnc1CO2 (some centres not stated)		> 100	15	3	No. positive cases/tested (Canis familiaris [19]): 1
CCN(CC)CCCNC1c2cc(OC)ccc2OCc2ncccc21 (configuration not stated)		50	24	4	No. positive cases/tested (Canis familiaris [19]): 1
CCNCCNC1c2cc(OC)ccc2OCc2ncccc21 (configuration not stated)		> 100	1	2	No. positive cases/tested (Canis familiaris [9]): 0
CCN(CC)CCNC1c2cc(Cl)ccc2OCc2ncccc21 (configuration not stated)		> 100			
CCN1CCCC1CNC1c2cc(OC)ccc2OCc2ncccc21 (stereo in doubt; 27) [listing 1 of 2 here]			25	3	
CCN1CCCC1CNC1c2cc(OC)ccc2OCc2ncccc21 (stereo in doubt; 27) [listing 2 of 2 here]		58			No. positive cases/tested (Canis familiaris [19]): 1
CCN(CC)CCNC1c2cc(F)ccc2OCc2ncccc21 (configuration not stated)	0	> 100			
CCN(CC)CCNC1c2ccc(OC)cc2OCc2ncccc21 (configuration not stated)	0	> 100	7	14	
CCN(CC)CC/C=C1\c2ccccc2OCc2ncccc21		100	45	6	No. positive cases/tested (Canis familiaris [20]): 2
CCN(CC)CCNC1c2cc(OC)ccc2OCc2ncccc21 (configuration not stated) [listing 2 of 2 here]			8	-3	
CCN1CCCC1CNC1c2cc(OC)ccc2OCc2ncccc21 (stereo in doubt; 26) [listing 2 of 2 here]			23	2	
CCN(CC)CCNC1c2ccccc2OCc2ncccc21 (configuration not stated)		93			No. positive cases/tested (Canis familiaris [21]): 0
COc1ccc2c(c1)C(NCCN1C(C)CCCC1C)c1cccnc1CO2 (configuration not stated)		> 100	11	2	No. positive cases/tested (Canis familiaris [19]): 1
COc1ccc2c(c1)C(NCCN(C)C)c1cccnc1CO2 (configuration not stated)	0	> 100	15	3	
CCN(CC)CCNC1c2cc(OC(C)C)ccc2OCc2ncccc21 (configuration not stated)	0	53	12	3	
